Measurements published in article PMC6652007, “Metabolic engineering of Clostridium thermocellum for n-butanol production from cellulose” (Biotechnology for Biofuels, 2019).
Like-named read-outs stand apart in the source and are kept apart here.

What was measured:
Ts_Bad = tested on: T1, Ts_Bad; test: NADH oxidation, A340; assay type: biochemical, Thermoanaerobacter sp. (strain X514); details: 0.3 mM NADH, 100 mM MOPS-KOH pH 7.5, 55 °C, anaerobic
T1 construct: gene bad; His-tagged (vector pD861-CH), codon-optimised, expressed in E. coli BL21(DE3), purified anaerobically
Description: NADH oxidation, A340 on Ts_Bad

Tt_Hbd = molecular target: T2, Tt_Hbd (Thermoanaerobacterium thermosaccharolyticum, UniProt P77851, D31A/I32R, form not given); test: NAD(P)H oxidation, A340; assay type: biochemical; details: acetoacetyl-CoA as substrate, 100 mM MOPS-KOH pH 7.5, 55 °C
T2 construct: gene hbd; His-tagged (vector pD861-CH), codon-optimised, expressed in E. coli BL21(DE3)
T2 sequence (P77851 whole entry D31A/I32R, form open): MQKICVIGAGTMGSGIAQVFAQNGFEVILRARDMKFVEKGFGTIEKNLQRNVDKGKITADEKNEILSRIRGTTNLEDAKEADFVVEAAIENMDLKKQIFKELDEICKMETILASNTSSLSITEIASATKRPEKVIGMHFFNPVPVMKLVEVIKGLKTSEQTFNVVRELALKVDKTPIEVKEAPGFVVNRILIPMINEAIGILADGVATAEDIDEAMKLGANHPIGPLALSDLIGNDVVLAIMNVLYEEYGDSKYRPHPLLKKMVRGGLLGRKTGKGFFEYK
Description: NAD(P)H oxidation, A340 on Tt_Hbd

Structure (SMILES) | Km (Ts_Bad) | other results
CC(=O)SCCNC(=O)CCNC(=O)[C@H](O)C(C)(C)COP(=O)(O)OP(=O)(O)OC[C@H]1O[C@@H](n2cnc3c(N)ncnc32)[C@H](O)[C@@H]1OP(=O)(O)O [Acetyl-CoA] | 90 ± 10 µM | –
CCCC(=O)SCCNC(=O)CCNC(=O)[C@H](O)C(C)(C)COP(=O)(O)OP(=O)(O)OC[C@H]1O[C@@H](n2cnc3c(N)ncnc32)[C@H](O)[C@@H]1OP(=O)(O)O [Butyryl-CoA] | 200 ± 100 µM | –
NC(=O)C1=CN([C@@H]2O[C@H](COP(=O)(O)OP(=O)(O)OC[C@H]3O[C@@H](n4cnc5c(N)ncnc54)[C@H](O)[C@@H]3O)[C@@H](O)[C@H]2O)C=CC1 [NADH] | – | Km (Tt_Hbd; read-out: NADH / Km): 110 ± 20 µM
NC(=O)C1=CN([C@@H]2O[C@H](COP(=O)(O)OP(=O)(O)OC[C@H]3O[C@@H](n4cnc5c(N)ncnc54)[C@H](OP(=O)(O)O)[C@@H]3O)[C@@H](O)[C@H]2O)C=CC1 [NADPH] | – | Km (Tt_Hbd; read-out: NADPH / Km): 30 ± 10 µM
